Patent US10376520B2, “Methods for the treatment of cardiovascular disorders” (Galapagos NV, priority 2015, dated 2019)

Legend:
RA patients [1] = assay: Disease Activity Score 28 (DAS28(CRP)), Study 2; format: in vivo, human
Source text: As used herein, the term ‘DAS28(CRP)’ refers to a clinical scoring ranging from 2.0 to 10.0 to measure the disease status at a given point in time, and thereby follow the progress and improvement of rheumatoid arthritis in a patient, and includes a 28 tender and swollen joint count, CRP measurement from blood analysis, and a general health assessment on a visual analog scale. A DAS28(CRP) value below 2.6 is indicative of remission, A DAS28(CRP) between 2.6 and 3.2 is indicative of low disease activity, between 3.2 and 5.1 is indicative of moderate disease activity, whereas a DAS28(CRP) above 5.1 is linked to high disease activity. (Wells et al., 2008)
Double-blind, placebo-controlled, monotherapy study in subjects with moderately to severely active RA who have an inadequate response to methotrexate (MTX) (oral or parenteral).
Twelve weeks of treatment with Compound 1 (dosed as a [Compound 1:HCl:3H2O]) at 50 mg, 100 mg, or 200 mg q.d.; or placebo. At Week 12, all subjects on placebo and the subjects on the 50 mg dose who have not achieved 20% improvement in swollen joint count (SJC66) and tender joint count (TJC68) will be assigned to 100 mg q.d. in a blinded fashion and will continue treatment until Week 24. Subjects in the other groups will maintain their randomized treatment until Week 24.
The (DAS28(CRP)) is a system developed and validated by the European League Against Rheumatism (EULAR) to measure the progress and improvement of rheumatoid arthritis and has been extensively validated (Wells et al., 2008). The DAS28(CRP) scoring includes a 28 tender and swollen joint count, CRP measurement from blood analysis, and a general health assessment on a visual analog scale (Fransen et al., 2003).
DAS28(CRP) values range from 2.0 to 10.0, and more particularly reflect the following status: • Remission: DAS28(CRP)≤2.6 • Low Disease activity: 2.6<DAS28(CRP)≤3.2 • Moderate Disease Activity: 3.2<DAS28(CRP)≤5.1 • High Disease Activity: DAS28(CRP)>5.1
In practice, the DAS28(CRP) measurement involves the evaluation 28 different joints including in the measurement (proximal interphalangeal joints (10 joints), metacarpophalangeal joints (10), wrists (2), elbows (2), shoulders (2), and knees (2)). When looking at these joints, both the number of joints with tenderness upon touching and swelling are counted.
Firstly, the patient is asked to make a vertical mark on a 100 mm Visual Analog Scale (VAS) corresponding to their general health or global disease activity. Using an electronic touchscreen, the mark is measured from the left-hand side in mm to obtain the VAS value, which is used in the formula below.
Secondly, a swollen and tender joint examination is then performed on the patient. The swollen and tender joints are recorded. From this examination are obtained the total amount of swollen joints (SJC) and the total amount of tender joints (TJC), which are used in the formula below.
Thirdly, C-reactive protein (CRP) levels (in mg/dL) are measured.
Finally, the values obtained above (VAS, JTC28, SJC28, and CRP) are computed into the following Formula to obtain the DAS28(CRP) score.
The number of subjects (N) provided in each groups corresponds to the number of patients starting the study in each group, and the DAS28 (CRP) data reported below corresponds to the responding patients continuing for the entire 24 weeks on their initial treatment course.

RA patients [2] = assay: [HDL] cholesterol level (Selectra autoanalyzer), Study 4; format: in vivo, human; settings: for HDL level, 4 weeks CFB: 4 weeks change from baseline
Method: Randomized double-blind, placebo-controlled add on study in subjects with active RA who have an inadequate response to MTX monotherapy, in combination with methotrexate, administered for 4 weeks in the treatment of subjects with active rheumatoid arthritis who have an inadequate response to methotrexate alone.
Compound 1 (dosed as a [Compound 1:HCl:3H2O]) capsules administered orally in 30 mg, 75 mg, 150 mg, or 300 mg doses per day for 4 weeks.
Triglycerides, [HDL] cholesterol, and plasma cholesterol were measured on the Selectra autoanalyzer (Sopachem BV, 44-RI Straat 33, 4051 AP Ochten, The Netherlands). All assays were commercially available from DiaSys Diagnostic Systems GmbH, Alte Strasse 9, 65558 Holzheim, Germany.

SMILES: O=C(Nc1nc2cccc(-c3ccc(CN4CCS(=O)(=O)CC4)cc3)n2n1)C1CC1 [Compound 1, cyclopropanecarboxylic acid {5-[4-(1,1-dioxo-thiomorpholin-4-ylmethyl)-phenyl]-[1,2,4]triazolo[1,5-a]pyridin-2yl}-amide]
- DAS28(CRP) mean CFB (LOCF) - over 24 weeks (RA patients [1]; 50 mg q.d., Week 16): −1.88
- DAS28(CRP) mean CFB (LOCF) - over 12 weeks (RA patients [1]; 50 mg q.d., week 1): −0.70
- DAS28(CRP) mean CFB (LOCF) - over 24 weeks (RA patients [1]; 50 mg q.d., week 1): −0.75
- DAS28(CRP) mean CFB (LOCF) - over 12 weeks (RA patients [1]; 50 mg q.d., week 2): −0.97
- DAS28(CRP) mean CFB (LOCF) - over 12 weeks (RA patients [1]; 50 mg q.d., week 4): −1.37
- DAS28(CRP) mean CFB (LOCF) - over 24 weeks (RA patients [1]; 50 mg q.d., week 12): −1.75
- % patients reaching low disease activity and/or remission at week 24 (LOCF) (RA patients [1]; 100 mg q.d.): 50%
- DAS28(CRP) mean CFB (LOCF) - over 12 weeks (RA patients [1]; 100 mg q.d., week 1): −0.88
- DAS28(CRP) mean CFB (LOCF) - over 24 weeks (RA patients [1]; 100 mg q.d., week 1): −0.87
- DAS28(CRP) mean CFB (LOCF) - over 12 weeks (RA patients [1]; 100 mg q.d., week 4): −1.50
- DAS28(CRP) mean CFB (LOCF) - over 24 weeks (RA patients [1]; 100 mg q.d., week 12): −2.04
- DAS28(CRP) mean CFB (LOCF) - over 24 weeks (RA patients [1]; 100 mg q.d., week 16): −2.39
- DAS28(CRP) mean CFB (LOCF) - over 24 weeks (RA patients [1]; 200 mg q.d., week 8): −2.23
- DAS28(CRP) mean CFB (LOCF) - over 24 weeks (RA patients [1]; 200 mg q.d., week 20): −2.55
- HDL level, 4 weeks CFB (RA patients [2]; 30 mg q.d.): 6.7%
- HDL level, Baseline (RA patients [2]; 30 mg q.d.): 0.9 mM
- HDL level, week 4 (RA patients [2]; 30 mg q.d.): 1 mM
- HDL level, 4 weeks CFB (RA patients [2]; 75 mg q.d.): 13.7%
- HDL level, Baseline (RA patients [2]; 75 mg q.d.): 1 mM
- HDL level, week 4 (RA patients [2]; 75 mg q.d.): 1.1 mM
- HDL level, 4 weeks CFB (RA patients [2]; 150 mg q.d.): 10.7%
- HDL level, Baseline (RA patients [2]; 150 mg q.d.): 1 mM
- HDL level, week 4 (RA patients [2]; 150 mg q.d.): 1.1 mM
- HDL level, 4 weeks CFB (RA patients [2]; 300 mg q.d.): 46.0%
- HDL level, Baseline (RA patients [2]; 300 mg q.d.): 1 mM
- HDL level, week 4 (RA patients [2]; 300 mg q.d.): 1.4 mM
